Measurements reported in patent US20240207427A1, “SELECTIVE DRUG RELEASE FROM INTERNALIZED CONJUGATES OF BIOLOGICALLY ACTIVE COMPOUNDS” (priority 2021, published 2024).
Like-named read-outs stand apart in the source and are kept apart here.

Key:
Assay type in all cases: cell-based
[1] = system: non-small-cell lung cancer cells (Calu1); assay: In vitro potency (CellTiter-Glo, 96 h), Calu1; details: Homo sapiens, Calu-1, 96 h, Table 28; CPT free drugs; non-small-cell lung cancer cells Calu1; 96 h, CellTiter-Glo; read-out: Calu1 IC50
Description: (§1) In vitro potency was assessed on multiple cancer cell lines. All cell lines were authenticated by STR profiling at IDEXX Bioresearch and cultured for no more than 2 months after resuscitation. Cells cultured in log-phase growth were seeded for 24 hours in 96-well plates containing […] RPMI 1640 supplemented with 20% FBS. Serial dilutions of antibody-drug conjugates in cell culture media were prepared at 4× working concentrations, and 50 μL of each dilution was added to the 96-well plates. Following addition of test articles, cells were incubated with test articles for 4 days at 37 0° C. After 96 hours, growth inhibition was assessed by CellTiterGlo® (Promega, Madison, WI) and luminescence was measured on a plate reader.
(§2) In Table 7, IC50 values for ADCs are given in ng/mL. Cell viability was determined by CellTiter-Glo staining after 96 h exposure to ADC. ND=Not Determined. Ag2 is an antibody targeting a ubiquitous and readily internalizable antigen. The cancer cell lines tested are renal carcinoma cells (786-0), melanoma cells (A2058), pancreatic cancer cells (BxPC3), non-small-cell lung cancer cells (Calu1), anaplastic large cell lymphoma cells (DEL, DELBVR, Karpas299), Hodgkin's lymphoma cells (L540cy), (Ls174T), breast cancer cells (MDA-MB-231), acute myeloid leukemia cells (MOLM-13), and B-lymphocyte cancer cells (SU-DHL4).
(§3) In vitro potency was assessed on multiple cancer cell lines. All cell lines were authenticated by STR profiling at IDEXX Bioresearch and cultured for no more than 2 months after resuscitation. Cells cultured in log-phase growth were seeded for 24 hours in 96-well plates containing […] RPMI 1640 supplemented with 20% FBS. Following addition of test articles, cells were incubated with test articles for 4 days at 37 0° C. After 96 hours, growth inhibition was assessed by CellTiterGlo® (Promega, Madison, WI) and luminescence was measured on a plate reader.
(§4) Cell viability was determined by CellTiter-Glo staining after 96 h exposure to the compound. ND=Not Determined. The cancer cell lines tested are renal carcinoma cells (786-0), melanoma cells (A2058), pancreatic cancer cells (BxPC3), non-small-cell lung cancer cells (Calu1), anaplastic large cell lymphoma cells (DEL, DELBVR, Karpas299), Hodgkin's lymphoma cells (L540cy), (Ls 174T), breast cancer cells (MDA-MB-231), acute myeloid leukemia cells (MOLM-13), B-lymphocyte cancer cells (SU-DHL4), multiple myeloma cells (MM.1R), (U266), and melanoma cells (SK-MEL-5).
as §1, with “37°” for “37 0°”
(§5) In the following Tables IC50 values for ADCs and CPT free drugs are given in ng/mL and nmol/L concentrations. Cell viability was determined by CellTiter-Glo staining after 96 h exposure to ADC or CPT free drug.
(§6) Cell viability was determined by CellTiter-Glo staining after 96 h exposure to ADC. ND=Not Determined.

Ls174T cells = assay: In vitro potency (CellTiter-Glo, 96 h), Ls174T; details: Homo sapiens, LS174T, 96 h, 96 h
Procedure, shortened: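 Log-phase cells were seeded for 24 h in RPMI 1640 with 20% FBS, then exposed to serially diluted antibody-drug conjugates or free camptothecin drug for 4 days at 37 °C. Growth inhibition was read by luminescence, and IC50 values were reported in ng/mL and nmol/L.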

[2] = system: B-lymphocyte cancer cells (SU-DHL4); assay: In vitro potency (CellTiter-Glo, 96 h), SU-DHL-4; details: Homo sapiens, SU-DHL-4, 96 h
Procedure, shortened: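 Four-day continuous exposure at 37 °C to serially diluted ADC or free camptothecin payload, in RPMI 1640 with 20% FBS after 24 h pre-plating. Luminescent signal gave IC50 (ng/mL; nmol/L).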

[3] = system: anaplastic large cell lymphoma cells (DELBVR); assay: In vitro potency (CellTiter-Glo, 96 h), DELBVR
Procedure, shortened: (§7)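 Growth inhibition after 96 h at 37 °C with test article, measured by luminescence; cells in RPMI 1640, 20% FBS.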

melanoma cells (A2058) = assay: In vitro potency (CellTiter-Glo, 96 h), A2058; details: Homo sapiens, A2058, 96 h, read-out: A2058 IC50
Description: as §1, §2, §3, §4
as §1, with “37°” for “37 0°”
as §5, §6

[4] = system: pancreatic cancer cells (BxPC3); assay: In vitro potency (CellTiter-Glo, 96 h), BxPC3; details: Homo sapiens, BXPC-3, 96 h
Procedure, shortened: as §7

[5] = system: Hodgkin's lymphoma cells (L540cy); assay: In vitro potency (CellTiter-Glo, 96 h), L540cy
Procedure, shortened: as §7

[6] = system: anaplastic large cell lymphoma cells (Karpas299); assay: In vitro potency (CellTiter-Glo, 96 h), Karpas299; details: Homo sapiens, KARPAS-299, 96 h
Procedure, shortened: as §7

[7] = system: renal carcinoma cells (786-O); assay: In vitro potency (CellTiter-Glo, 96 h), 786-O; details: Homo sapiens, 786-0, 96 h
Procedure, shortened: as §7

[8] = system: acute myeloid leukemia cells (MOLM-13); assay: In vitro potency (CellTiter-Glo, 96 h), MOLM-13; details: Homo sapiens, MOLM-13, 96 h
Procedure, shortened: as §7

[9] = system: anaplastic large cell lymphoma cells (DEL); assay: In vitro potency (CellTiter-Glo, 96 h), DEL
Procedure, shortened: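 IC50 (ng/mL or nmol/L) derived from CellTiter-Glo luminescence after 96 h exposure at 37 °C to serial dilutions of ADC or CPT free drug. Log-phase cells had been plated 24 h beforehand in RPMI 1640 containing 20% FBS.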

[10] = system: breast cancer cells (MDA-MB-231); assay: In vitro potency (CellTiter-Glo, 96 h), MDA-MB-231; details: Homo sapiens, MDA-MB-231, 96 h
Procedure, shortened: as §7

[11] = read-out: Ls174T IC50, camptothecin free drug, 96 h
[12] = read-out: SU-DHL-4 IC50, camptothecin free drug, 96 h
[13] = read-out: DELBVR IC50, camptothecin free drug, 96 h
[14] = read-out: BxPC3 IC50, camptothecin free drug, 96 h
[15] = read-out: L540cy IC50, camptothecin free drug, 96 h
[16] = read-out: Karpas299 IC50, camptothecin free drug, 96 h
[17] = read-out: 786-O IC50, camptothecin free drug, 96 h
[18] = read-out: MOLM-13 IC50, camptothecin free drug, 96 h
[19] = read-out: DEL IC50, camptothecin free drug, 96 h
[20] = read-out: MDAMB231 IC50, camptothecin free drug, 96 h

Structure (SMILES)	IC50 (Ls174T cells; [11]) [nM]	IC50 [2, 12] [nM]	IC50 [3, 13] [nM]	IC50 (melanoma cells (A2058)) [nM]	IC50 [4, 14] [nM]	IC50 [5, 15] [nM]	IC50 [6, 16] [nM]	IC50 [7, 17] [nM]	IC50 [8, 18] [nM]	IC50 [9, 19] [nM]	IC50 [10, 20] [nM]	also measured
CC[C@@]1(O)C(=O)OCc2c1cc1n(c2=O)Cc2c-1nc1cc(F)c(SC)cc1c2CN [Compound 2at]												IC50 [1]: 37 nM
CC[C@@]1(O)C(=O)OCc2c1cc1n(c2=O)Cc2c-1nc1cc3c(cc1c2CNCC(O)CN1CCOCC1)OCO3 (some centres unmarked) [Compound 7i]	72	72	51	33	106	63	154	128	312	38	1000	IC50 (Ls174T cells; read-out: Ls174T IC50, Table 29, CPT free drugs, Ls174T cells, CellTiter-Glo): 110 nM; IC50 ([2]; read-out: SU-DHL-4 IC50, Table 29, CPT free drugs, B-lymphocyte cancer cells SU-DHL4, 96 h, CellTiter-Glo): 32 nM; IC50 ([3]; read-out: DELBVR IC50, Table 29, CPT free drugs, anaplastic large cell lymphoma cells DELBVR, CellTiter-Glo): 17 nM; IC50 ([4]; read-out: BxPC3 IC50, Table 29, CPT free drugs, pancreatic cancer cells BxPC3, 96 h, CellTiter-Glo): 57 nM; IC50 ([5]; read-out: L540cy IC50, Table 29, CPT free drugs, Hodgkin's lymphoma cells L540cy, CellTiter-Glo): 48 nM; IC50 ([6]; read-out: Karpas299 IC50, Table 29, CPT free drugs, anaplastic large cell lymphoma cells Karpas299, 96 h, CellTiter-Glo): 84 nM; IC50 ([7]; read-out: 786-O IC50, Table 29, CPT free drugs, renal carcinoma cells 786-O, 96 h, CellTiter-Glo): 118 nM; IC50 ([8]; read-out: MOLM-13 IC50, Table 29, CPT free drugs, acute myeloid leukemia cells MOLM-13, 96 h, CellTiter-Glo): 183 nM; IC50 ([9]; read-out: DEL IC50, Table 29, CPT free drugs, anaplastic large cell lymphoma cells DEL, CellTiter-Glo): 9 nM; IC50 ([10]; read-out: MDAMB231 IC50, Table 29, CPT free drugs, breast cancer cells MDA-MB-231, 96 h, CellTiter-Glo): 183 nM
CC[C@@]1(O)C(=O)OCc2c1cc1n(c2=O)Cc2c-1nc1cc3c(cc1c2CNC1CCOCC1)OCO3 [Compound 7k]	67	19	14	14	63	20	46	57	34	6	207	
CC[C@@]1(O)C(=O)OCc2c1cc1n(c2=O)Cc2c-1nc1cc3c(cc1c2CNCCCN1CCN(C(=O)OC(C)(C)C)CC1)OCO3 [Compound 7m]												IC50 (Ls174T cells; camptothecin free drug, read-out: Ls174T IC50): 222 nM; IC50 ([2]; camptothecin free drug, 96 h, read-out: SU-DHL-4 IC50): 74 nM; IC50 ([3]; camptothecin free drug, read-out: DELBVR IC50): 54 nM; IC50 (melanoma cells (A2058); camptothecin free drug, 96 h): 58 nM; IC50 ([4]; camptothecin free drug, 96 h, read-out: BxPC3 IC50): 173 nM; IC50 ([5]; camptothecin free drug, read-out: L540cy IC50): 80 nM; IC50 ([6]; camptothecin free drug, 96 h, read-out: Karpas299 IC50): 171 nM; IC50 ([7]; camptothecin free drug, 96 h, read-out: 786-O IC50): 139 nM; IC50 ([8]; camptothecin free drug, 96 h, read-out: MOLM-13 IC50): 459 nM; IC50 ([9]; camptothecin free drug, read-out: DEL IC50): 55 nM; IC50 ([10]; camptothecin free drug, 96 h, read-out: MDAMB231 IC50): 700 nM
CC[C@@]1(O)C(=O)OCc2c1cc1n(c2=O)Cc2c-1nc1cc3c(cc1c2CNCCCN(C)C)OCO3 [Compound 7t]	> 1000	97	55	64	171	70	166	153	326	58	1000	
CC[C@@]1(O)C(=O)OCc2c1cc1n(c2=O)Cc2c-1nc1cc3c(cc1c2CNC[C@@H](O)CO)OCO3 [Compound 7u]	86	66	50	19	108	60	128	122	456	26	707	
CC[C@@]1(O)C(=O)OCc2c1cc1n(c2=O)Cc2c-1nc1cc3c(cc1c2CNCCCN)OCO3 [Compound 7v]	146	99	57	69	225	87	132	174	> 1000	58	1000	
